# Test results published in PMC12408683 (Archives of Toxicology, 2025).
# Read-outs that look alike come from different tables or passages of the source.
# What was measured:
# HepG2 cells [1] = assay: Resazurin reduction assay (cytotoxicity) in HepG2 cells; conditions: for EC50: read-out: EC50 (cell viability)
# HepaRG cells and PRH = tested on: HepaRG cells and PRH; design: method as in Yang et al. 2020; conditions: 50 µM ES or 1′OH-ES; ref Yang et al. 2020; cited from earlier work
# HepG2 cells [2] = conditions: for MN formation, increase (flow cytometry): 24 h + 72 h recovery
# Experimental: DMSO served as solvent control, while MMC was used as a positive control. […] Following the recovery time, the cells were detached, harvested by centrifugation (300 g, 5 min), and washed with PBS. […] The fluorescent dye was then activated by photolysis (60 W lightbulb, 30 cm spacing) for 20 min before addition of 9 mL PBS to remove unbound dye. […] 1.5 × 10^4 cells were analysed using the BD FACSDiva software (BD Biosciences, Heidelberg, Germany).
# HepG2 cells [3] = assay: DNA adduct quantification by UHPLC-MS/MS in HepG2 cells; assay type: cell-based, human; conditions: for E3′-N^2-dG adducts / E3′-N^6-dA adducts: 24 h
# Experimental: (§1) To this end, 6 × 10^6 cells were seeded per 10 cm dish and allowed to attach overnight. […] The pellets were washed with phosphate-buffered saline (PBS) and stored at – 20 °C until further use. DNA was isolated as described previously (Carlsson et al. [2022]) and DNA concentration as well as purity were determined with the NanoDrop ND1000 photometer (Thermo Scientific, Waltham MA, USA). As a next step, 30 µg DNA of each sample was digested overnight at 37 °C with micrococcal nuclease (Worthington, Lakewood NJ, USA) and phosphodiesterase II (Worthington, Lakewood NJ, USA) as reported (Carlsson et al. [2022]). Afterwards ^15N-E3′-N^2-dG (2 nM), ^15N-E3′-N^6-dA (0.5 nM) as well as ^15N-dG (20 µM) (Silantes, München, Germany) were added as internal standards. The isotope-labelled internal DNA adduct standards and external DNA adduct standard were synthesised as previously described (Schumacher et al. [2013]). Subsequently, the samples were incubated overnight at 37 °C with alkaline phosphatase (Sigma-Aldrich, St. Louis MO, USA), followed by precipitation of remaining proteins with ethanol and centrifugation at 20,800 g. The supernatant was narrowed down in a vacuum centrifuge (Eppendorf concentrator plus, Eppendorf, Hamburg, Germany) at 60 °C and 1400 g for 2–4 h and the resulting pellet was dissolved in 75% methanol. After another centrifugation step, the solution was transferred into glass vials with inserts.
# (§2) The DNA adducts were measured via UHPLC–MS/MS with a multiple reaction method (MRM) using a UHPLC system (Agilent 1290 infinity; Agilent Technologies, Santa Clara CA, USA) consisting of a binary pump (G4220A), an autosampler (G4226A) and a column oven (G1316C). The eluent consisted of 0.1% acetic acid and UHPLC grade methanol. Injection volume was 5 μL and the flow rate was 0.2 mL/min. The gradients are shown in the supporting information, Fig. 2A, B. As a separation column, a Waters XTerraMS C18 2.5 µm (2.1 × 50 mm) was used at 35 °C. The UHPLC was coupled to the Sciex QTrap 5500 MS using a declustering potential of 91 V, an entrance potential of 10 V, a collision energy of 33 V, a collision cell entrance potential of 10 V, curtain gas of 25 psi, an ion spray voltage of 5500 V, a temperature of 550 °C, and an ion source gas of 35 psi as specific mass spectrometry parameters. Measurement was performed with an electron spray ionisation in positive mode using MRM to quantify both adducts. For further quantification of the adduct levels, a standard curve of both adducts was carried along ranging from 60 to 100,000 pM, also containing isotope-labelled standards for reference. Furthermore, the dG-content of each sample was determined via LC–MS/MS with stable isotope dilution analysis to normalise the adduct levels to the overall nucleoside content (Carlsson et al. [2022]; Stegmüller et al. [2018]). The limit of detection (LOD) and the limit of quantification (LOQ) for E3′-N^2-dG and E3′-N^6-dA are provided in supplementary Table S1. The specific compound parameters for both methods are provided in supplementary Table S2.
# (§3) As benchmark response (BMR) for all concentration–response curves (adducts, micronuclei), a 2.0-fold increase vs. solvent control was used (BMC100, critical effect size = 1). The determined BMC100 and the corresponding upper and lower boundary (BMCU and BMCL, respectively) of the 90% confidence interval (CI) were used for potency comparison.
# [4] = tested on: primary rat hepatocytes (PRH); conditions: read-out: EC50 (cell viability); 24 h
# Experimental: The cell viability was calculated relative to the negative control (set to 100%).
# [5] = design: method as in Yang et al. 2021; conditions: PBPK modelling, dietary uptake 0.01 mg/kg bw and day; ref Yang et al. 2021; cited from earlier work
# HepaRG cells = tested on: HepaRG cells; design: method as in Le Hegarat et al. 2014; conditions: ref Le Hegarat et al. 2014; cited from earlier work
# parental HepG2 cells = tested on: parental HepG2 cells; design: method as in Yang et al. 2020; conditions: ref Yang et al. 2020; cited from earlier work
# female gpt delta mice = tested on: female gpt delta mice; design: method as in Suzuki et al. 2012b; conditions: ref Suzuki et al. 2012b; cited from earlier work
# HepG2-CYP1A2 cells = assay: DNA adduct quantification by UHPLC-MS/MS in HepG2-CYP1A2 cells; assay type: cell-based, human
# Experimental: as §1, §2, §3
# male F344 gpt delta rats = tested on: male F344 gpt delta rats; design: method as in Suzuki et al. 2012a; conditions: top dose 200 mg ES/kg bw for 4 weeks; ref Suzuki et al. 2012a; cited from earlier work
# [6] = endpoint MN (FCM), BMR 2.0-fold increase, 90% CI
# [7] = endpoint E3′-N^2-dG, BMR 2.0-fold increase, 90% CI
# [8] = endpoint E3′-N^2-dG, BMR 2.0-fold increase, 90% CI, PROAST
smiles,measurement,setting,value
"C=CC(O)c1ccc(OC)cc1 (centres unmarked) [1′OH-ES, 1′-hydroxyestragole]",cell viability,"HepG2 cells [1]; 50 µM 1′OH-ES, 24 h treatment + 72 h recovery",above 70%
same,EC50,HepG2 cells [1]; 24 h,43 µM
same,EC50,HepG2 cells [1]; 72 h,27 µM
same,E3′-N^2-dG levels vs ES,HepaRG cells and PRH,33–40 fold
same,"MN formation, increase (flow cytometry)",HepG2 cells [2]; 25 µM 1′OH-ES,twofold
same,"MN formation, increase (flow cytometry)",HepG2 cells [2]; 50 µM 1′OH-ES,4.6 fold
same,concentrations at which clastogenicity was observed,HepG2 cells [2]; CBMN and MN flow assay,≥ 25 µM
same,BMC100,"HepG2 cells [2]; endpoint MN (FCM), BMR 2.0-fold increase",29.8 µM
same,BMCL,HepG2 cells [2]; [6],21.1 µM
same,BMCU,HepG2 cells [2]; [6],37.6 µM
same,E3′-N^2-dG adducts,HepG2 cells [3]; 0.1 µM 1′OH-ES,24 adducts/10^8 ncs
same,E3′-N^2-dG adducts,HepG2 cells [3]; 25 µM 1′OH-ES,2237 adducts/10^8 ncs
same,E3′-N^6-dA adducts,HepG2 cells [3]; 25 µM 1′OH-ES,64 adducts/10^8 ncs
same,E3′-N^2-dG adducts,HepG2 cells [3]; 35 µM 1′OH-ES,6881 adducts/10^8 ncs
same,E3′-N^6-dA adducts,HepG2 cells [3]; 35 µM 1′OH-ES,139 adducts/10^8 ncs
same,E3′-N^2-dG levels vs equimolar ES concentrations,"HepG2 cells [3]; 1′OH-ES in HepG2 vs ES in HepG2-CYP1A2, 24 h",10–50 fold
same,BMC100,"HepG2 cells [3]; endpoint E3′-N^2-dG, BMR 2.0-fold increase",2.65 µM
same,BMCL,HepG2 cells [3]; [7],0.75 µM
same,BMCU,HepG2 cells [3]; [7],5.65 µM
same,genotoxic and mutagenic potency compared to the parent compound ES,HepG2 cells [3]; from BMC modelling,20–30 fold
same,E3′-N^2-dG adduct level corresponding to significant cytotoxicity,HepG2 cells [3]; highest 1′OH-ES concentration,6881 adducts/10^8 ncs
same,E3′-N^2-dG adduct level at which a twofold MN increase was observed,"HepG2 cells [3]; molecular dosimetry, flow cytometry and CBMN",420–2237 adducts/10^8 ncs
same,concentrations reaching the adduct level required to impair viability,HepG2 cells [3]; more than 6000 E3′-N^2-dG adducts/10^8 ncs,≥ 35 µM
same,E3′-N^2-dG adducts required to impair viability and trigger cell death,HepG2 cells [3]; not reached by ES,more than 6000 adducts/10^8 ncs
same,EC50,[4],23 µM
"C=CCc1ccc(OC)cc1 [ES, estragole]",predicted ES concentration in liver venous blood,[5],0.01 µM
same,lowest effect concentration for MN formation,HepaRG cells,1 mM
same,DNA adducts,parental HepG2 cells,failed to cause DNA adducts
same,dose with significant increase in mutation frequency,female gpt delta mice,75 mg/kg bw
same,"E3′-N^2-dG adducts, change vs maximum level","HepG2-CYP1A2 cells; 2 mM ES (highest treatment group), 24 h",moderate decline
same,E3′-N^6-dA adduct (minor DNA adduct),"HepG2-CYP1A2 cells; any tested ES concentration (up to 2 mM), 24 h",neither quantifiable nor detectable
same,BMCL,HepG2-CYP1A2 cells; [8],18.9 µM
same,BMCU,HepG2-CYP1A2 cells; [8],104 µM
same,BMC100,"HepG2-CYP1A2 cells; endpoint E3′-N^2-dG, BMR 2.0-fold increase, PROAST",63.3 µM
same,"mutagenicity, increase vs. control",male F344 gpt delta rats,twofold
